Where two headings read alike, the source gives them in different places.
Tests used:
[1] = biological target: T1, fusion protein Tel/PDGF-Rβ (BaF3 Tel/PDGF cells) (Homo sapiens, UniProt P09619); assay: Inhibition of PDGF-Rβ tyrosine kinase activity: proliferation of BaF3 Tel/PDGF cells (CellTiter-Glo, 72 h); format: cell-based, murine; details: 72 hours incubation, read-out: IC50 (concentration that inhibits 50% of the proliferation of the BaF3 Tel/PDGF cells)
T1 construct: the transmembrane and intracellular part of the PDGF-Rβ receptor; N-terminal part of the Tel transcription factor (ETV6); expressed in transfected cells; host or cells: murine haematopoietic cell line BaF/3; the other entry of the earlier key: ETV6 (P41212, Transcription factor ETV6)
T1 sequence (P09619 with tags, fused parts or gaps): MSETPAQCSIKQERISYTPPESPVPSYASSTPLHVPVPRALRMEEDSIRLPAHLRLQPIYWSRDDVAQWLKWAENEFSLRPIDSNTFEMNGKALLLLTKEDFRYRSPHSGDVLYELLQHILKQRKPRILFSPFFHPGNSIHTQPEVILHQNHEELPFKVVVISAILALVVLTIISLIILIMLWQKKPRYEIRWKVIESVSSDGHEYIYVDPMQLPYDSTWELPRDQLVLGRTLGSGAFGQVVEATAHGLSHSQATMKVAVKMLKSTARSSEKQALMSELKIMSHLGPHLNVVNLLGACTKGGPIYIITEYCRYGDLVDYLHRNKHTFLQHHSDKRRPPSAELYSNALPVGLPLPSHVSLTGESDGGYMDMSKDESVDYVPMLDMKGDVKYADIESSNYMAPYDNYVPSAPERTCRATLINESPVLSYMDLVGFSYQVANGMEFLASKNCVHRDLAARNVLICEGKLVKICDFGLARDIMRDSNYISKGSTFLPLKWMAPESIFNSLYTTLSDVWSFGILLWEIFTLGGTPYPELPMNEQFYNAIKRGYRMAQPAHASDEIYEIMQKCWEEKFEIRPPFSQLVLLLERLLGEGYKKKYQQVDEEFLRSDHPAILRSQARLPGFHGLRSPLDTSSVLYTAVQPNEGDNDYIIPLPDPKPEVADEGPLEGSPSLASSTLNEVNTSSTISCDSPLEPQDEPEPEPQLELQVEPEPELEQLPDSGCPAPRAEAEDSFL
Method: Measurement of Inhibition of the Tyrosine Kinase Activity of the PDGF Beta (PDGF-Rβ) (Baf-3 tel/PDGFIRβ) Receptor:
This test consists in evaluating the effects of the compounds on the tyrosine kinase activity of the PDGF beta receptor.
The inhibitory effect of the compounds according to the invention towards the tyrosine kinase activity of the PDGF-R receptor was evaluated on the murine haematopoietic cell line BaF/3 transfected with a plasmid coding for the fusion protein Tel/PDGF-Rβ. This fusion protein is found in chronic myelomonocytic myeloid leukaemias (CMML). It comprises the N-terminal part of the Tel transcription factor and the transmembrane and intracellular part of the PDGF-Rβ receptor. This fusion protein is present in dimerized form (presence of an oligomerization domain in the N-terminal part of Tel) and, as a result, leads to constitutive activity of the kinase domain of PDGF-Rβ. This line BaF3 Tel/PDGF has been described in the literature several times and especially, in detailed manner, in the article by M. Carroll et al., PNAS, 1996, 93, 14845-14850.
The BaF3 Tel/PDGF cells are washed with phosphate buffer and inoculated in 96-well plates, at a density of 5×10^4 cells/ml ([…]), in RPMI 1640 containing 10% FCS, in the presence or absence of the test compounds. After incubation for 72 hours, the viable cells are quantified by measuring the cellular ATP by means of the CellTiter-Glo® kit (Promega, Cat G7571). The cells are treated according to the instructions given by the kit manufacturer, and the luminescence is measured using a Luminoskan (Ascent, Labsystem) with the following parameters: measurement: single; integration time: 1000 ms, lag time: 5 s.
It is thus seen that the compounds according to the invention have inhibitory activity on the tyrosine kinase activity of PDGF-Rβ. This activity is given by the concentration that inhibits 50% of the proliferation of the BaF3 Tel/PDGF cells (IC50).

[2] = biological target: T2, fusion protein Tel/PDGF-R (PDGF-Rβ kinase domain) in HEK cells (Homo sapiens, UniProt P09619); assay: Ex vivo activity: plasma of orally treated mice tested on PDGF-R autophosphorylation in HEK Tel/PDGF-R cells (ELISA); design: species or system female Balb/c mice; details: HEK293, mouse, po, 30 mg/kg po, read-out: % inhibition of autophosphorylation of PDGFR tyrosine kinase in HEK cells
T2 construct: the transmembrane and intracellular part of the PDGF-Rβ receptor; N-terminal part of the Tel transcription factor (ETV6); expressed in transfected cells; host or cells: HEK cells (transient transfection); the other entry of the earlier key: ETV6 (P41212, Transcription factor ETV6)
T2 sequence (P09619 with tags, fused parts or gaps): as above
Method: Ex vivo activity of the compounds of the invention was measured. These compounds are thus administered orally to female Balb/c mice at a dose of 10, 30 or 100 mg/kg in suspension or in solution in a vehicle such as methylcellulose/Tween and the inhibition of the tyrosine kinase activity is measured in vitro in a cell test, using plasma collected at 15 minutes, 1 hour and 4 hours.
1) Protocol for Administration of the Products to the Mice
The products are prepared in a mortar with 0.5% Tween 80 and 0.6% methylcellulose qs final volume. Depending on the case, preparations of different vehicles may be used: water, mixture of labrasol solutol 5% glucose-water. The suspended or dissolved products are administered by gavage (10 ml/kg) to female Balb/c mice 8 to 15 weeks old.
The animals are then collected at the time given by the protocol (15 min, 1 hour, 4 hours, 16 hours).
The animals are anaesthetized by intraperitoneal injection (10 ml/kg) of a ketamine (0.1 g/kg)-xylazine (20 mg/kg) mixture. […] The blood sample is collected from the vein or the artery using a dry syringe and needle. The blood is immediately transferred into heparin lithium tubes (BD microtainer). Centrifugation for 3 minutes at 12 000 rpm allows recovery of the plasma, on which the biochemical test may be performed after storage by freezing at −20° C.
2) Preparation of the HEK Tel/PDGF-R Cells and Measurement of the Phosphorylation of PDGF-R
In order to detect the ex vivo activity of the products using the mouse plasmas, the HEK cells are transiently transfected beforehand with an expression vector coding for the fusion protein Tel/PDGF-R (fusion protein described previously). After 24 hours of transfection, the cells are deprived of serum overnight and then incubated for 30 minutes with the animal plasmas treated with the products of the invention. The cells are then lysed in RIPA buffer, and detection of the phosphorylation of PDGF-Rβ is then performed via the ELISA technique, using a commercial kit (R&D Systems, DYC1767). The results are expressed as a percentage of inhibition of the autophosphorylation.
In this test of measurement of the ex vivo activity, the effect of the compounds of the invention is quantified by the percentage of inhibition of phosphorylation of the kinase domain of the PDGF-Rβ receptor in HEK cells, induced by the inhibitory activity of the product present in the plasma of the treated animals, as described in the following table: […]

| Structure (SMILES) | IC50 [1] [nM] | melting point [°C] | inhibition at 30 mg/kg ([2]; plasma collected at 15 min) [%] | inhibition at 30 mg/kg ([2]; plasma collected at 1 h) [%] | inhibition at 30 mg/kg ([2]; plasma collected at 4 h) [%] |
| --- | --- | --- | --- | --- | --- |
| CCn1c(N)c(C(=O)NC)c(=O)c2ccc(-c3ccc(CC(=O)NCCCc4ccccc4)cc3)nc21 [compound 41, 2-amino-1-ethyl-N-methyl-4-oxo-7-(4-{2-oxo-2-[(3-phenylpropyl)amino]-ethyl}phenyl)-1,4-dihydro-1,8-naphthyridine-3-carboxamide] | 5.5 | 278 | – | – | – |
| CCn1c(N)c(C(=O)NC)c(=O)c2ccc(-c3ccc(CC(=O)NCCN4CCOCC4)cc3)nc21 [compound 18, 2-amino-1-ethyl-N-methyl-7-(4-{2-[(2-morpholin-4-ylethyl)amino]-2-oxoethyl}phenyl)-4-oxo-1,4-dihydro-1,8-naphthyridine-3-carboxamide] | – | – | 55 | 62 | 17 |
| CCn1c(N)c(C(=O)NC)c(=O)c2ccc(-c3ccc(CC(=O)NC[C@H]4CCCN4CCF)cn3)nc21 [compound 29, 2-amino-1-ethyl-7-{5-[2-({[(2R)-1-(2-fluoroethyl)pyrrolidin-2-yl]methyl}-amino)-2-oxoethyl]pyrid-2-yl}-N-methyl-4-oxo-1,4-dihydro-1,8-naphthyridine-3-carboxamide] | 35 | – | – | – | – |
| CCn1c(N)c(C(=O)NC)c(=O)c2ccc(-c3ccc(CC(=O)NC[C@H]4CCCN4CC(F)F)cn3)nc21 [compound 34, 2-amino-7-{5-[2-({[(2R)-1-(2,2-difluoroethyl)pyrrolidin-2-yl]methyl}amino)-2-oxoethyl]pyrid-2-yl}-1-ethyl-N-methyl-4-oxo-1,4-dihydro-1,8-naphthyridine-3-carboxamide] | – | – | 73 | 64 | 58 |

Further lines, results first:

| IC50 [1] [nM] | melting point [°C] | inhibition at 30 mg/kg ([2]; plasma collected at 15 min) [%] | inhibition at 30 mg/kg ([2]; plasma collected at 1 h) [%] | inhibition at 30 mg/kg ([2]; plasma collected at 4 h) [%] | Structure (SMILES) |
| --- | --- | --- | --- | --- | --- |
| 162 | 264 | – | – | – | CCCNC(=O)c1c(N)n(CC)c2nc(-c3ccc(CC(=O)NCC4CCCN4CC)cc3)ccc2c1=O (centres unmarked) [compound 48, 2-amino-1-ethyl-7-[4-(2-{[(1-ethylpyrrolidin-2-yl)methyl]amino}-2-oxoethyl)phenyl]-4-oxo-N-propyl-1,4-dihydro-1,8-naphthyridine-3-carboxamide] |
| – | – | 58 | 67 | 20 | CCN1C[C@H](F)C[C@H]1CNC(=O)Cc1ccc(-c2ccc3c(=O)c(C(=O)NC)c(N)n(CC)c3n2)cc1 [compound 26, 2-amino-1-ethyl-7-{4-[2-({[(2S,4R)-1-ethyl-4-fluoropyrrolidin-2-yl]methyl}-amino)-2-oxoethyl]phenyl}-N-methyl-4-oxo-1,4-dihydro-1,8-naphthyridine-3-carboxamide] |
| – | – | 85 | 68 | 42 | CCn1c(N)c(C(=O)NC)c(=O)c2ccc(-c3ccc(CC(=O)NC[C@H]4CCCN4CC(F)F)cc3)nc21 [compound 31, 2-amino-7-{4-[2-({[(2R)-1-(2,2-difluoroethyl)pyrrolidin-2-yl]methyl}amino)-2-oxoethyl]phenyl}-1-ethyl-N-methyl-4-oxo-1,4-dihydro-1,8-naphthyridine-3-carboxamide] |
| 48 | 230 | – | – | – | CCN1CCCC1CNC(=O)CCCc1ccc(-c2ccc3c(=O)c(C(=O)NC)c(N)n(CC)c3n2)cc1 (centres unmarked) [compound 47, 2-amino-1-ethyl-7-[4-(4-{[(1-ethylpyrrolidin-2-yl)methyl]amino}-4-oxobutyl)phenyl]-N-methyl-4-oxo-1,4-dihydro-1,8-naphthyridine-3-carboxamide] |
| – | 218 | – | – | – | CCN1CCCC1CNC(=O)CCc1ccc(-c2ccc3c(=O)c(C(=O)NC)c(N)n(CC)c3n2)cc1 (centres unmarked) [compound 46, 2-amino-1-ethyl-7-[4-(3-{[(1-ethylpyrrolidin-2-yl)methyl]amino}-3-oxopropyl)phenyl]-N-methyl-4-oxo-1,4-dihydro-1,8-naphthyridine-3-carboxamide] |

Source: patent publication US8436011B2, “Pyridinopyridinone derivatives, preparation thereof and therapeutic use thereof” (Sanofi, priority 2008, dated 2013)
